Source: US9486440B2, “Uses of indole-ketones or indolidones as neuro-protective drugs” (UNIVERSITY OF MACAU, priority 2011, dated 2016)

What was measured:
[1] = tested on: dopaminergic neurons in zebrafish larval; assay: MPTP zebrafish, TH-positive neuron count in paraffin sections; type: in vivo
Procedure: Healthy zebrafish embryos were picked and dechorionated manually at 1 day post fertilization (dpf) then distributed into a 12-well plate with 20 fish embryos or a 6-well microplate with 30 fish embryos in each well. In pilot experiments, several doses of MPTP were added to embryo medium (final concentration from 50 to 800 μM) and 1 dpf fish embryo were treated for 48 hours, The optimal dose used (200 μM) induced a significant decrease in brain diencephalic dopaminergic neurons without any detectable systematic toxicity (data not shown). Thus subsequent studies were performed with 200 μM MPTP for whole-mount immunostaining and gene expression experiments.
After drug treatment, fixation of zebrafish larval was performed as the procedure in whole-mount immunostaining. The fixed specimens were then mounted on 1% agarose blocks in a common linear plane to ensure that the microtome blade passes through each specimen simultaneously. The specimen-containing agarose was converted into a sectionable paraffin wax block and conducted processes as described by Sabaliauskas et al., 2006. […] The results were analyzed by counting the numbers of TH-positive cells at ×20 magnifications on a stereomicroscope (BX51, Olympus Corp. Japan). TH-positive cells in 3 matched sections of each zebrafish were counted and averaged. […]

iNOS protein expression = assay: Western blot of iNOS protein in CGNs after MPP+; type: cell-based, rat; details: 20 μM, 35 μM MPP+
Procedure: Briefly, neurons were harvested in a cell lysis buffer. Protein was separated on SDS-polyacrylamide gel and transferred onto polyvinyldifluoride membranes. After membrane blocking, proteins were detected using primary antibodies. After incubation at 4° C. overnight, signals were obtained after binding to chemiluminescent secondary antibodies. Blots were developed using an ECL plus kit (Amersham Bioscience, Aylesbury, UK) and exposed to Kodak autoradiographic films. All data were from three independent experiments and were expressed as the ratio to optical density (OD) values of the corresponding controls for statistical analyses.

[2] = tested on: nNOS knockdown PC12 cells; assay: MPP+ in ShRNA-mediated nNOS knockdown PC12 cells; type: cell-based, rat; details: 20 μM SU5416 2 hours, then 1 mM MPP+ 24 hours
Procedure: The assay was performed according to the specifications of the manufacturer (MTT kit I; Roche Applied Science). […] After the incubation, 100 μl of the solvating solution (0.01 N HCl in 10% SDS solution) was added to each well for 16-20 hours. The absorbance of the samples was measured at a wavelength of 570 nm with 655 nm as a reference wavelength. Unless otherwise indicated, the extent of MTT conversion in cells exposed to MPP^+ is expressed as a percentage of the control. Cytotoxicity was determined by measuring the release of lactate dehydrogenase (LDH). Briefly, cells were precipitated by centrifugation at 500 g for 5 min at room temperature, 50 μl of the supernatants was transferred into new wells, and LDH was determined using the in vitro toxicology assay kit (Roche). The absorbance of the samples was measured at a wavelength of 490 nm with 655 nm as a reference wavelength. ShRNA against rat nNOS was designed according to […] et al, 2009. […] NM_052799), was used to generate shRNA. […] Sense and antisense oligonucleotides were then annealed and cloned into pG418-GFP vector to express shRNA directed against nNOS under the control of the U6 promoter (GenePharma, Shanghai, China). A negative control shRNA (ShNC) with the same nucleotide composition but lacks significant sequence homology to the genome was also used in the experiments. […]

[3] = phase I, 145 mg/m^2; cited from earlier work
[4] = tested on: retinal photoreceptors or ganglion cells; details: 3 mg of SU4312 every 5 days for 12 weeks; cited from earlier work
[5] = SU4312 in brain homogenate of rats after i.p. administration (HPLC); type: in vivo, rat; details: 12 mg/kg i.p.
Procedure: To investigate whether SU4312 could reach the brain, an HPLC method was used to detect SU4312 in the brain homogenate and plasma of rats (Scott et al., 2004; Spitsin et al., 2008). Briefly, after drug administration by i.p., the animals were transcardially perfused with PBS/heparin (1000 U/L). Then rats were sacrificed by decapitation and brain tissue was homogenized. SU4312 in the brain homogenate was extracted with 3 ml […]. After evaporating the solvent, the residue was reconstituted in 50 μl methanol. SU4312 in the brain tissue was identified by an Agilent 1200 Series HPLC coupled with UV detector at a wavelength of 254 nm. Prior to the preparation of brain homogenate, transcardial perfusion with PBS/heparin was conducted in order to remove blood from cerebravascular system so as to avoid the interference of the SU4312 that simply retained in the brain vasculature.
Plasma concentration of SU4312 was also assayed by an HPLC method. Briefly, after drug administration by i.p., serial blood samples were collected through right internal jugular vein catheterization at various time points post-dosing. The plasma samples were treated with acetonitrile and methanol followed by centrifugation, and 20 μl supernatants were injected into the liquid chromatographic system. The mobile phase consisted of a mixture of methanol and water (80:20, v/v) at a flow rate of 1 ml/min.

| Structure (SMILES) | MPTP-induced loss of dopaminergic neurons (TH-positive neuron count) ([1]; 200 μM MPTP, 1 μM SU5416, 2 days) | number of dopaminergic neurons, drug alone ([1]; without MPTP) | MPP+-elevated expression of iNOS protein (iNOS protein expression) | MPP+-induced cell death in nNOS knockdown PC12 cells (MTT, LDH) [2] | tolerability in patients with advanced malignancies [3] | damage to retinal photoreceptors or ganglion cells [4] | detection in the brain, 15 min ([5]; 15 min post-administration) | detection in the brain, 60 min ([5]; 60 min after administration) |
| --- | --- | --- | --- | --- | --- | --- | --- | --- |
| Cc1cc(C)c(/C=C2\C(=O)Nc3ccccc32)[nH]1 [SU5416, (3Z)-3-[(3,5-dimethyl-1H-pyrrol-2-yl)methylidene]-1,3-dihydro-2H-indol-2-one] | obviously prevented the loss of dopaminergic neurons | did not notably alter the number of dopaminergic neurons | could not affect the elevated expression of iNOS by MPP^+ | no longer able to inhibit MPP^+-induced cell death | well tolerated |  |  |  |
| CN(C)c1ccc(C=C2C(=O)Nc3ccccc32)cc1 [SU4312, 3-[4-(dimethylamino)benzylidenyl]indolin-2-one] |  |  |  |  |  | did not damage retinal photoreceptors or ganglion cells | could rapidly penetrate into the brain and be detected in the brain 15 min post-administration | almost no SU4312 was detected in the brain |
